Results reported in US7381521B2, “Anti-pathogenic composition useful in blood preservation” (Altachem Pharma Ltd., priority 2001, dated 2008).

Columns and labels:
[1] = tested on: C. albicans ATCC 1031; assay: Test 2 (DGHM), action as a function of disinfection time at 22° C., 8 × 10^7 organisms/ml; format: cell-based, Candida albicans
Procedure: (§1) Another test was carried out a basis of the following solutions • 100 ml of a 0.1% solution of chlorohexidine digluconate (pH 6); and • 100 ml of a 0.1% solution of Bardac22®.
(§2) The activity of these solutions, alone or in combination, was more particularly tested in respect of Staphylococcus aureus ATCC 6538, Escherichia coli ATCC 11229 and Candida albicans ATCC 10231.
(§3) The tests were conducted in accordance with the procedure described in Chapter I/2.1 and 2.2 of Tichtlinien für die Prüfung und Bewertung chemischer Desinfektionsverfahren der DGHM/Guidelines for Testing and Evaluating Chemical Disinfection Processes of DGHM as at 1.1, 1981.

[2] = tested on: erythrocytes in heparinized bovine blood; assay: In-vitro hemolysis of erythrocytes in heparinized whole blood, absorbance at 413 nm; conditions: 1 hour at 37° C.
Procedure: The effect of the compounds on the in-vitro hemolysis of erythrocytes in heparinized whole blood is monitored by a spectrophotometric method.
Various formulations and concentrations of the test compound are added to heparinized bovine blood and mixed gently in a 1.5 ml microcentrifuge tube. The sample is allowed to incubate for 1 hour at 37° C. At the end of incubation, the samples are removed from the incubator and centrifuged at 2000 rpm for 5 minutes. A 200 μl aliquot of the supernatant is removed from each sample into a 96 well microtiter plate and read at 413 nm. The absorbance of the test sample is compared to the control sample containing phosphate buffered saline, pH 7.2.

[3] = tested on: S. aureus ATCC 6538; assay: Test 2 (DGHM), growth inhibition by dilutions, 72 hours at 37° C.; format: cell-based, Staphylococcus aureus
Procedure: as §1, §2, §3
(§4) Tables IX, X and XI respectively illustrate the bactericidal and fungicidal activity of a 0.1% aqueous solution of chlorohexidine digluconate, a 0.1% aqueous solution of Bardac22® and a mixture of equal parts of both compounds. The procedures of which these Tables illustrate the results comprise incubation of 72 hours at 37° C. and the use of the following inactivating substances as controls: • A: 3% Tween®80+0.3% lecithin+0.1% cysteine • B: 3% Tween®80+3% saponin+0.1% cysteine+0.1% histidine; • C: 3% Tween®80+0.3% lecithin+0.1% histidine+0.5% sodium thiosulphate.
(§5) In these Tables, the sign “+” indicates an increase and the sign “−” denotes the absence of growth.

[4] = tested on: spermatozoids; assay: Spermicidal action, vitality by eosine-nigrosine, 100 spermatozoids examined; format: cell-based, human (healthy volunteers); design: key: living (colourless) cells counted among 100 spermatozoids examined; conditions: Chlorohexidine digluconate solution 0.5%
Procedure: The various samples of sperm (one drop of sperm per sample) are obtained from healthy volunteers.
One drop of sperm is treated by eosine-nigrosine. A smear is then prepared and 100 spermatozoids examined with a microscope. The dead cells are coloured red, either totally or partially. The living cells are colourless.
The substances studied were Bardac® and chlorohexidine digluconate, tested alone and in association in accordance with the invention. The various stages of the procedure are set out in Tables XV to XVII.
The maximum contact time of the various substances and of the sperm was confined to 3 minutes in order to guarantee the effectiveness of the method under the conditions of use. The concentration of the active solutions in the sperm was limited to 10% in order to reduce the risks of toxicity of the products in respect of the mucosa.

[5] = tested on: E. coli ATCC 11229; assay: Test 2 (DGHM), growth inhibition by dilutions, 72 hours at 37° C.; format: cell-based, Escherichia coli
Procedure: as §1, §2, §3, §4, §5

[6] = 0.00625% vol/vol, inactivator A
[7] = 0.00625% vol/vol, inactivator B
[8] = 0.00625% vol/vol, inactivator C
[9] = 0.00625% vol/vol, no inactivator
[10] = 0.0125% vol/vol, no inactivator

[H]/N=C(\N/C(=N/[H])NCCCCCCNC(=N)NC(=N)Nc1ccc(Cl)cc1)Nc1ccc(Cl)cc1 [Chlorhexidine, chlorohexidine digluconate, reference compound]
growth ([1]; 0.05% vol/vol, 1 min): + | growth ([1]; 0.05% vol/vol, 3 min): + | growth ([1]; 0.05% vol/vol, 5 min): + | growth ([1]; 0.05% vol/vol, 15 min): + | growth ([1]; 0.05% vol/vol, 30 min): + | growth ([1]; 0.05% vol/vol, 60 min): + | growth ([1]; 0.1% vol/vol, 1 min): + | growth ([1]; 0.1% vol/vol, 3 min): + | growth ([1]; 0.1% vol/vol, 5 min): + | growth ([1]; 0.1% vol/vol, 15 min): + | growth ([1]; 0.1% vol/vol, 30 min): + | growth ([1]; 0.1% vol/vol, 60 min): + | growth ([1]; 0.5% vol/vol, 1 min): + | growth ([1]; 0.5% vol/vol, 3 min): + | growth ([1]; 0.5% vol/vol, 5 min): + | growth ([1]; 0.5% vol/vol, 15 min): + | growth ([1]; 0.5% vol/vol, 30 min): + | growth ([1]; 0.5% vol/vol, 60 min): + | growth ([1]; 1% vol/vol, 1 min): + | growth ([1]; 1% vol/vol, 3 min): + | growth ([1]; 1% vol/vol, 5 min): + | growth ([1]; 1% vol/vol, 15 min): + | growth ([1]; 1% vol/vol, 30 min): + | growth ([1]; 1% vol/vol, 60 min): − | growth ([1]; 5% vol/vol, 1 min): + | growth ([1]; 5% vol/vol, 3 min): + | growth ([1]; 5% vol/vol, 5 min): + | growth ([1]; 5% vol/vol, 15 min): + | growth ([1]; 5% vol/vol, 30 min): − | growth ([1]; 5% vol/vol, 60 min): − | growth ([1]; 10% vol/vol, 1 min): + | growth ([1]; 10% vol/vol, 3 min): + | growth ([1]; 10% vol/vol, 5 min): + | growth ([1]; 10% vol/vol, 15 min): + | growth ([1]; 10% vol/vol, 30 min): − | growth ([1]; 10% vol/vol, 60 min): − | growth ([1]; 25% vol/vol, 1 min): + | growth ([1]; 25% vol/vol, 3 min): + | growth ([1]; 25% vol/vol, 5 min): + | growth ([1]; 25% vol/vol, 15 min): − | growth ([1]; 25% vol/vol, 30 min): − | growth ([1]; 25% vol/vol, 60 min): − | Concentration at which hemolysis is not observed ([2]; component of test compound Bardac 22 + Chlorohexidine Gluconate + Tergitol NP-9): 0.001% | Concentration at which hemolysis is not observed ([2]; component of test compound Bardac 22 + Chlorohexidine Gluconate): 0.0125% | concentration of active substance inhibiting growth [3]: 0.0005% | dilution of the 0.1% solution inhibiting growth [3]: 0.5% | growth [3, 6]: + | growth [3, 7]: + | growth [3, 8]: + | growth [3, 9]: + | growth ([3]; 0.0125% vol/vol, inactivator A): + | growth ([3]; 0.0125% vol/vol, inactivator B): + | growth ([3]; 0.0125% vol/vol, inactivator C): + | growth [3, 10]: + | growth ([3]; 0.025% vol/vol, inactivator A): + | growth ([3]; 0.025% vol/vol, inactivator B): + | growth ([3]; 0.025% vol/vol, inactivator C): + | growth ([3]; 0.025% vol/vol, no inactivator): + | growth ([3]; 0.05% vol/vol, inactivator A): + | growth ([3]; 0.05% vol/vol, inactivator B): + | growth ([3]; 0.05% vol/vol, inactivator C): + | growth ([3]; 0.05% vol/vol, no inactivator): + | growth ([3]; 0.1% vol/vol, inactivator A): + | growth ([3]; 0.1% vol/vol, inactivator B): + | growth ([3]; 0.1% vol/vol, inactivator C): + | growth ([3]; 0.1% vol/vol, no inactivator): + | growth ([3]; 0.5% vol/vol, inactivator A): + | growth ([3]; 0.5% vol/vol, inactivator B): + | growth ([3]; 0.5% vol/vol, inactivator C): + | growth ([3]; 0.5% vol/vol, no inactivator): − | growth ([3]; 1.0% vol/vol, inactivator A): + | growth ([3]; 1.0% vol/vol, inactivator B): + | growth ([3]; 1.0% vol/vol, inactivator C): + | growth ([3]; 1.0% vol/vol, no inactivator): − | vitality (living spermatozoids) ([4]; contact 1 min, 5% in the sperm): 77 ± 10.8 | vitality (living spermatozoids) ([4]; contact 1 min, 10% in the sperm): 77.2 ± 5.6 | vitality (living spermatozoids) ([4]; contact 3 min, 5% in the sperm): 78 ± 5.7 | vitality (living spermatozoids) ([4]; contact 3 min, 10% in the sperm): 75.5 ± 4.8 | concentration of active substance inhibiting growth [5]: 0.0005% | dilution of the 0.1% solution inhibiting growth [5]: 0.5% | growth [5, 6]: + | growth [5, 7]: + | growth [5, 8]: + | growth [5, 9]: + | growth ([5]; 0.0125% vol/vol, inactivator A): + | growth ([5]; 0.0125% vol/vol, inactivator B): + | growth ([5]; 0.0125% vol/vol, inactivator C): + | growth [5, 10]: + | growth ([5]; 0.025% vol/vol, inactivator A): + | growth ([5]; 0.025% vol/vol, inactivator B): + | growth ([5]; 0.025% vol/vol, inactivator C): + | growth ([5]; 0.025% vol/vol, no inactivator): + | growth ([5]; 0.05% vol/vol, inactivator A): + | growth ([5]; 0.05% vol/vol, inactivator B): + | growth ([5]; 0.05% vol/vol, inactivator C): + | growth ([5]; 0.05% vol/vol, no inactivator): + | growth ([5]; 0.1% vol/vol, inactivator A): + | growth ([5]; 0.1% vol/vol, inactivator B): + | growth ([5]; 0.1% vol/vol, inactivator C): + | growth ([5]; 0.1% vol/vol, no inactivator): + | growth ([5]; 0.5% vol/vol, inactivator A): + | growth ([5]; 0.5% vol/vol, inactivator B): + | growth ([5]; 0.5% vol/vol, inactivator C): + | growth ([5]; 0.5% vol/vol, no inactivator): − | growth ([5]; 1.0% vol/vol, inactivator A): + | growth ([5]; 1.0% vol/vol, inactivator B): + | growth ([5]; 1.0% vol/vol, inactivator C): + | growth ([5]; 1.0% vol/vol, no inactivator): −
